Assay results: US4839380A, “1-Thiocarbamoylmethylpyrrolidine-2-thione, medical compositions of, and anti-hypoxic and nootropic use thereof” (priority 1988, dated 1989)

What was measured:
[1] = test system: mice; assay: Acute histotoxic hypoxia (sodium nitroprusside): lifespan of mice; type: in vivo
Method: (§1) The antihypoxic effect of the compound according to the present invention was studied in comparison with pyracetam on various experimental models of hypoxic states in experiments on mice and rats. The compound according to the present invention and pyracetam were administered intraperitoneally in the form of an aqueous emulsion prepared with Tween-80.
The studies were carried out using a model of an acute histotoxic hypoxia.
An acute histotoxic hypoxia was induced by way of a subcutaneous injection of sodium nitroprusside in the dose of 20 mg/kg. This mode of administration results in a 100% death of mice in 15-25 minutes after administration of the preparation. The lifespan of the mice was adjudicated after administration of sodium nitroprusside against the background of the test compounds (the compound according to the present invention and pyracetam) which was recorded by the arrest of breathing and heart. In this series of experiments 40 animals altogether were used.

[2] = Convulsions caused by thiosemicarbazide; type: in vivo, white mice
Text: The interaction of the compound according to the present invention with thiosemicarbazide--a specific antagonist of gamma-aminobutyric acid (GABA) was also studied.
Due to the fact that in functioning of the brain, in particular in processes of learning and memorizing, gammaaminobutyric acid (GABA) plays an important role, the possibility of the presence of a GABA-ergic component in the mechanism of action of the compound according to the present invention was studied. To this end, the ability of the compound according to the present invention to prevent convulsions caused by thiosemicarbazide, which is an inhibitor of an enzyme synthesizing gamma-aminobutyric acid, was studied.
The experiments were carried out on 140 white mice of 18-20 g mass. Thiosemicarbazide was administered hypodermally in the dose of 20 mg/kg. The compound according to the present invention was administered intraperitoneally in the doses of 50, 250 and 500 mg/kg 20 minutes after administration of thiosemicarbazide. For every dose 20 mice were used. The presence of the anticonvulsion activity was determined by the change of the latent period of occurrence of convulsions and by extension of the period of death of the animals. The experiments were carried out in comparison with pyracetam.

[3] = test system: mice; assay: Acute hypobaric hypoxia: height ceiling for mice (Hmax); type: in vivo, mice (male, tetrahybrids)
Method: as §1
(§2) The studies were carried out on a model of an acute hypobaric hypoxia.
(§3) An acute […] hypoxia was modelled in a flow-type barometric chamber at an ambient temperature of 17°-20° C. with absorption of carbon dioxide and water.
(§4) The test animals (male mice, tetrahybrids) with a mass of 15-22 g of the same generation were "lifted" (under simulation conditions) at the mean speed of 50 m/sec to the height of 11,000 m at which the lifespan (in minutes) for the same series of experiments was evaluated. Furthermore, the mice were discretely lifted at the same speed to the height of 10,000 m where they stayed for 1 minute and then to the height of 11,000 m, where they again were kept for 1 minute and so on, till their death for the determination of the height "ceiling", The animals' death was adjudicated by the occurrence of an agonal breathing against the background of convulsions. The total number of mice employed in the experiments was 200.
(§5) As the comparison preparation pracetam was used. The compound according to the present invention and pyracetam were administered one hour before the "lift".

[4] = test system: rats; assay: Learning speed and performing of electrodefensive conditioned reflex of avoidance; type: in vivo, rats (nondescript male)
Text: The study of the compound according to the present invention for the speed of learning and performing the produced conditioned reflux was effected in experiments on rats using the method of electrodefensive conditioned reflexes of avoidance.
The study of the effect on the learning speed and fulfilment of the elaborated conditioned reflex was effected on 40 nondescript male rats with a mass of 150170 g (4 groups of 10 rats in each) by the method of electrodefensive conditioned reflexes. Conditioned reflexes were trained in all rats for ringing used as a conditional irritation signal supported by a non-conditional irritating agent--electric current (40-50 V) supplied to an electrified floor of a conditioned-reflex chamber. As the criterion for the elaboration of the conditioned reflex the rat's jump onto a stand in response to switching-on of a bell during the first 10 seconds after the beginning of the sound was assumed.
All rats, against the background of elaboration of conditioned reflexes, were administered over 3 weeks (5 times a week) with: the first group--the compound according to the present invention in the dose of 250 mg/kg; the second and third group--pyracetam in the doses of 500 and 1,000 mg/kg; and the fourth group--control--isotonic solution of sodium chloride. The administration was effected intraperiotoneally 24 hours before the experiment.

[5] = test system: mice; assay: Acute hypobaric hypoxia: lifespan of mice at the height of 11,000 m; type: in vivo, mice (male, tetrahybrids)
Method: as §1, §2, §3, §4, §5

[6] = test system: rats' cerebral cortex; assay: Acute repeating anoxia (asphyxial hypoxia): electrical activity of the cerebral cortex of rats; type: in vivo
Method: The studies were conducted on a model of an acute repeating anoxia.
The studies were carried out in experiments on rats with a mass of 180-200 g with nichrome electrodes in the brain (cerebral) cortex; after tracheostomy the animals were connected to the artificial-breathing apparatus. Anoxia was induced by repeatedly switching-off the breathing for 90, 120, 150 and 180 seconds with 10-minutes' intervals therebetween. Electrocardiogram and electrocorticogram were recorded. 53 rats altogether were used in the experiments. The antihypoxic activity of the compound according to the present invention in comparison with pyracetam was assessed by the following parameters:
I--time till the disappearance of a cortex electrical activity after discontinuation of oxygen supply;
II--time till the appearance of an electrocorticogram after renewal of breathing;
III--total time of electrical "silence" of the cortex
for each of the successive anoxiae.
The results of the experiments were statistically evaluated using Student's T-criterion.

[7] = dose 4 times that of the compound of the invention
[8] = 1st anoxia, 90 seconds, 1.000 mg/kg
[9] = 1st anoxia, 90 seconds, 250 mg/kg

NC(=O)CN1CCCC1=O [Pyracetam, 1-carbamidomethylpyrrolidone-2, reference compound]
lifespan of mice at an acute histotoxic hypoxia ([1]; 1.000 mg/kg (= 1,000)): 20.97 ± 1.31 min | lifespan of mice at an acute histotoxic hypoxia, % (control = 100%) ([1]; 1.000 mg/kg (= 1,000)): 107.6 ± 6.7% | lifespan of mice at an acute histotoxic hypoxia ([1]; 250 mg/kg): inactive | lifespan of mice at an acute histotoxic hypoxia ([1]; 500 mg/kg): 17.98 ± 1.49 min | lifespan of mice at an acute histotoxic hypoxia, % (control = 100%) ([1]; 500 mg/kg): 92.2 ± 7.62% | Latent period of convulsion occurrence ([2]; 1000 mg/kg): 66.6 (61.0-72.2) min | Time period after which animals die ([2]; 1000 mg/kg): 79.9 (64-96.8) min | Latent period of convulsion occurrence ([2]; 2000 mg/kg): 70.6 (65.6-75.6) min | Time period after which animals die ([2]; 2000 mg/kg): 82 (73.6-90.4) min | extension of the latent period of occurrence of convulsions as compared to the control [2, 7]: 10% | extension of the period of death as compared to the control [2, 7]: 17% | effect on thiosemicarbazide convulsions similar to that of the compound of the invention ([2]; higher doses): pronounced but very slightly | height ceiling for mice (Hmax) ([3]; 250 mg/kg): 10.96 ± 0.91 thous. m | height ceiling for mice (Hmax) ([3]; 500 mg/kg): 11.55 ± 0.62 thous. m | effect on elaboration and fixation of a conditioned reflex ([4]; 1.000 mg/kg): effect similar to that produced by the compound according to the present inventuion in the dose of 250 mg/kg | latent period of the conditioned reflex of avoidance ([4]; 1.000 mg/kg): 0.98 ± 0.29 s | effect on elaboration and fixation of a conditioned reflex ([4]; 500 mg/kg): inactive | lifespan of mice at the height of 11,000 m ([5]; 100 mg/kg): inactive | lifespan of mice at the height of 11,000 m ([5]; 250 mg/kg): 6.16 ± 0.72 min | lifespan of mice at the height of 11,000 m, % (control = 100%) ([5]; 250 mg/kg): 101.0 ± 11.8% | lifespan of mice at the height of 11,000 m ([5]; 500 mg/kg): 8.13 ± 2.43 min | lifespan of mice at the height of 11,000 m, % (control = 100%) ([5]; 500 mg/kg): 133.3 ± 39.9% | Number of animals with recovered electrocorticogram after the 4th anoxia ([6]; 1,000 mg/kg): 14.3% | Number of animals with retained electrocorticogram after the 1st anoxia ([6]; 1,000 mg/kg): 12.5% | Number of animals with recovered electrocorticogram after the 4th anoxia ([6]; 1,000 mg/kg, listed as pyracetam): 15% | I--time till the disappearance of a cortex electrical activity [6, 8]: 76.7 ± 4.8 s | II--time till the appearance of an electrocorticogram after renewal of breathing [6, 8]: 5.3 ± 0.2 s | III--total time of electrical "silence" of the cortex [6, 8]: 17.8 ± 4.9 s | I--time till the disappearance of a cortex electrical activity ([6]; 2nd anoxia (column 6; 120 seconds), 1.000 mg/kg): 85.8 ± 7.3 s | II--time till the appearance of an electrocorticogram after renewal of breathing ([6]; 2nd anoxia (column 7; 120 seconds), 1.000 mg/kg): 21.8 ± 6.9 s | III--total time of electrical "silence" of the cortex ([6]; 2nd anoxia (column 8; 120 seconds), 1.000 mg/kg): 53.3 ± 12.0 s | I--time till the disappearance of a cortex electrical activity ([6]; 3rd anoxia (column 9; 150 seconds), 1.000 mg/kg): 95.0 ± 16.3 s | II--time till the appearance of an electrocorticogram after renewal of breathing ([6]; 3rd anoxia (column 10; 150 seconds), 1.000 mg/kg): 67.6 ± 42.I | III--total time of electrical "silence" of the cortex ([6]; 3rd anoxia (column 11; 150 seconds), 1.000 mg/kg): 131.2 ± 53.8 s | I--time till the disappearance of a cortex electrical activity ([6]; 4th anoxia (column 12; 180 seconds), 1.000 mg/kg): 79.4 ± 23.8 s

NC(=S)CN1CCCC1=S [Compound of the present invention, 1-thiocarbamylmethylpyrrolidine-2-thione]
lifespan of mice at an acute histotoxic hypoxia ([1]; 250 mg/kg): 24.2 ± 2.46 min | lifespan of mice at an acute histotoxic hypoxia, % (control = 100%) ([1]; 250 mg/kg): 124.1 ± 12.6% | lifespan of mice at an acute histotoxic hypoxia ([1]; 500 mg/kg): 32.2 ± 4.95 min | lifespan of mice at an acute histotoxic hypoxia, % (control = 100%) ([1]; 500 mg/kg): 165.5 ± 25.4% | superiority to pyracetam in effectiveness ([1]; 500 mg/kg versus pyracetam 500 and 1,000 mg/kg): 1.5 times | Latent period of convulsion occurrence ([2]; 50 mg/kg): 59 (51.5-66.5) min | Time period after which animals die ([2]; 50 mg/kg): 76 (64-88) min | Latent period of convulsion occurrence ([2]; 250 mg/kg): 82.6 (76.I-89.I) min | Time period after which animals die ([2]; 250 mg/kg): 100.8 min | Latent period of convulsion occurrence ([2]; 500 mg/kg): 80 (75.6-86.4) min | Time period after which animals die ([2]; 500 mg/kg): 105 (95-115) min | extension of the latent period of occurrence of convulsions as compared to the control ([2]; 250 and 500 mg/kg i.p.): 25-30% | extension of the period of death occurrence as compared to the control ([2]; 250 and 500 mg/kg i.p.): 45-50% | height ceiling for mice (Hmax) ([3]; 250 mg/kg): 14.0 ± 0.707 thous. m | elevation of the height ceiling as compared to the control and pyracetam ([3]; 500 mg/kg): 4,000 m | height ceiling for mice (Hmax) ([3]; 500 mg/kg): 15.57 ± 0.85 thous. m | acceleration of elaboration and fixation of a conditioned reflex ([4]; 250 mg/kg): about 2 times | combinations of conditional and non-conditional irritation agents after which the reflex is fixed ([4]; 250 mg/kg): 49-65 combinations | lowering of the latent period of the conditioned reflex as compared to the control ([4]; 250 mg/kg): more than 2 times | latent period of the conditioned reflex of avoidance ([4]; 250 mg/kg, control 2.14±0.71 s): 0.87 ± 0.32 s | effective dose (learning and performing of conditioned response of avoidance in rats) ([4]; rats): 250 mg/kg | lifespan of mice at the height of 11,000 m ([5]; 100 mg/kg): 12.58 ± 8.64 min | lifespan of mice at the height of 11,000 m, % (control = 100%) ([5]; 100 mg/kg): 206.2 ± 59.7% | lifespan of mice at the height of 11,000 m ([5]; 250 mg/kg): 19.97 ± 4.93 min | lifespan of mice at the height of 11,000 m, % (control = 100%) ([5]; 250 mg/kg): 327.4 ± 80.8% | lifespan of mice at the height of 11,000 m ([5]; 500 mg/kg): 30.0 ± 0 min | lifespan of mice at the height of 11,000 m, % (control = 100%) ([5]; 500 mg/kg): 491.8 ± 0.0% | superiority to pyracetam in effect on the lifespan duration at 11,000 m ([5]; versus pyracetam): 3-4 times | Number of animals with retained electrocorticogram after the 1st anoxia ([6]; 250 mg/kg): 44.0% | time of recovery of the functional capacity of the brain ([6]; 250 mg/kg): considerably reduced | extension of the time till disappearance of an electrocorticogram ([6]; 250 mg/kg, especially first and second anoxiae): ~2 times | I--time till the disappearance of a cortex electrical activity [6, 9]: 84.3 ± 1.3 s | II--time till the appearance of an electrocorticogram after renewal of breathing [6, 9]: 3.7 ± 1.5 s | III--total time of electrical "silence" of the cortex [6, 9]: 8.9 ± 3.5 s | recovery of electrical activity of the brain after the 4th anoxia, effectiveness versus pyracetam ([6]; versus pyracetam): 7 times | retention of the electrocorticogram after the first 90-seconds' anoxia, superiority to pyracetam ([6]; versus pyracetam 1.000 mg/kg): 3 times
